Experimental data from patent US9914727B2, “Factor IXa inhibitors” (Merck Sharp & Dohme Corp., priority 2012, dated 2018).

Each compound was assayed against Factor IXa (Homo sapiens, UniProt P00740) (assay: Determination of inhibitory activity against Factor IXa (FIXa Low Enzyme; cleavage of fluorescent peptide CH3SO2-D-CHG-Gly-Arg-AFC)). Settings: fluorogenic peptide substrate CH3SO2-D-CHG-Gly-Arg-AFC.AcOH; excitation 405, emission 510.
Assay type: biochemical
Experimental: Determination of Inhibitory Activity Against Factor IXa
Formation of a clot to stem bleeding at a site of blood vessel injury involves the coordinated activity of a group of plasma proteins that initiate and propagate fibrin formation and subsequently protect fibrin from premature degradation. Factor IX is a key component of the plasma system that forms a fibrin clot at a site of vascular injury. The activity of Factor IXa is measured by monitoring the cleavage of the fluorescent peptide, CH3SO2-D-CHG-Gly-Arg-AFC.AcOH (“CHG” is cyclohexyl-glycine and “AFC” is trifluoro aminomethyl coumarin). Factor IXa cleaves the […] bond between Arg and AFC, thereby releasing the AFC fluorophore. The free AFC can be detected with a fluorescence detector at an excitation wavelength of 405 nm and emission wavelength of 510 nm.

Factor IXa, sequence (P00740 227-461 limits assumed): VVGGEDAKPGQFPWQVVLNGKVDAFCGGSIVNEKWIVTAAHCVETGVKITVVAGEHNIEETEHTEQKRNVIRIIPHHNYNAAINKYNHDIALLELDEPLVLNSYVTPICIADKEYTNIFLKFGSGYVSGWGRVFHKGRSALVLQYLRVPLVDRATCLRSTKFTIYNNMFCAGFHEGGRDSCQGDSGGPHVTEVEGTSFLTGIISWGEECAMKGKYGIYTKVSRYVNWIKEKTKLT
Factor IXa, sequence (P00740 47-191 partner limits assumed): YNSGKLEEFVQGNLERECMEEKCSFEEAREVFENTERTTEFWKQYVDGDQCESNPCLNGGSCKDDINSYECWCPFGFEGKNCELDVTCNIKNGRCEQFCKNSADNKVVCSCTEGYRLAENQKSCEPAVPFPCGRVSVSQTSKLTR

Compound | FIXa Low Enzyme [nM]
CC(C)(O)c1cccc(N2CCO[C@](C)([C@@H](O)c3nc(=O)c4c(ccc5c(N)nsc54)[nH]3)C2=O)n1 [Example 4, (R)-2-((S)-(3-Amino-9-oxo-6,9-dihydroisothiazolo[5,4-f]quinazolin-7-yl)(hydroxy)methyl)-4-(6-(2-hydroxypropan-2-yl)pyridin-2-yl)-2-methylmorpholin-3-one] | 352.7
C[C@]1([C@@H](O)c2nc(=O)c3c(ccc4c(N)nsc43)[nH]2)OCCN(c2ccn(-c3ccnnc3)n2)C1=O [Example 2, (R)-2-((S)-(3-Amino-9-oxo-6,9-dihydroisothiazolo[5,4-f]quinazolin-7-yl)(hydroxy)methyl)-2-methyl-4-(1-(pyridazin-4-yl)-1H-pyrazol-3-yl)morpholin-3-one] | 8.597
C[C@]1([C@@H](O)c2nc(=O)c3c(ccc4c(N)nsc43)[nH]2)OCCN(c2ccn(-c3ccc(=O)n(C(F)F)c3)n2)C1=O [Example 1, (R)-2-((S)-(3-Amino-9-oxo-6,9-dihydroisothiazolo[5,4-f]quinazolin-7-yl)(hydroxy)methyl)-4-(1-(1-(difluoromethyl)-6-oxo-1,6-dihydropyridin-3-yl)-1H-pyrazol-3-yl)-2-methylmorpholin-3-one] | 102.1
C[C@](O)(c1nc(=O)c2c(ccc3c(N)nsc32)[nH]1)[C@H]1OCCN(c2cccc(C(F)(F)F)n2)C1=O [Example 3, (R)-2-((S)-1-(3-Amino-9-oxo-6,9-dihydroisothiazolo[5,4-f]quinazolin-7-yl)-1-hydroxyethyl)-4-(6-(trifluoromethyl)pyridin-2-yl)morpholin-3-one] | 577.9
